According to patent US11325937B2, “Glycoside compound and preparation method therefor, composition, application, and intermediate” (SHANGHAI HUTCHISON PHARMACEUTICALS LIMITED, priority 2018, dated 2022):

Test system: VEGF-A mRNA expression in macrophages (RAW264.7)
Assay: In vitro macrophage experiment: activity of compounds to promote VEGF-A mRNA expression (RT-qPCR)
Type: cell-based
Conditions: Mus musculus, RAW264.7 macrophages, 3 h, no drug = 1, read-out: Expression level of VEGF-A mRNA; for fold induction at 1 µM: relative expression 2^-ΔΔCt; for fold induction at 100 µM: 0.1 mM; for fold induction at 100 µM / fold induction at 500 µM / fold induction at 1000 µM / fold induction at 2000 µM / fold induction at 3000 µM: relative expression; for fold induction at 500 µM: 0.5 mM; for fold induction at 1000 µM: 1 mM; for fold induction at 2000 µM: 2 mM; for fold induction at 3000 µM: 3 mM
Excerpt: 1.1. Specific steps for activity screening: 1-10×10^6 macrophages (RAW264.7) in logarithmic growth phase were transferred to a cell culture plate. The test compounds (Compounds TG-001, TG-002, TG-003, TG-004, TG-005, TG-006, TG-007, TG-008, TG-009, TG-010, TG-011, TG-012, TG-013, TG-014, TG-015, TG-016, TG-017, TG-018, TG-019, TG-020, TG-021, TG-022, TG-023, TG-024, TG-025, TG-026, TG-027, TG-028, TG-029, TG-030, TG-031, TG-032, TG-033, TG-034, TG-035, TG-036, TG-037, TG-045, TG-039, TG-040 TG-041, TG-042, TG-043, TG-044, TG-045, TG-052, TG-053, TG-054, TG-047, TG-048, TG-046, TG-049, TG-050, TG-051, TG-055 and TG-056) were respectively diluted into various concentrations, and separately added to the cell culture plate containing macrophage. The cells were cultured for 3 h in a complete medium (RPMI 1640 medium:fetal bovine serum:tri-resistance screening agent (i.e. penicillin-streptomycin-gentamicin, Beijing Leagene Biotechnology Co., Ltd.)=89:10:1 based on volume) in a cell incubator at 37° C. and 5% CO2. The cells were lyzed by Trizol (Beijing ComWin Biotech Co., Ltd) to extract RNA, and the RNA concentration was measured using a microvolume nucleic acid and protein analyzer (Nanodrop2000c). The required volume V of RNA was calculated according to the RNA concentration, and the RNA reverse transcription reaction system was prepared according to Table 1. Then RNA reverse transcription (cDNA synthesis) (RT Easy™ I (For first-strand cDNA synthesis) Reverse Transcription Kit, Chengdu ForeGene Biotechnology Co., Ltd.) was carried out according to the conditions described in Table 2. The resulting cDNA was used to prepare a fluorescence quantitative PCR reaction solution according to Table 3. The fluorescence quantitative PCR reaction conditions were set according to Table 4, and the fluorescence quantitative PCR reaction (Real time PCR Easy™-SYBR Green Fluorescence Quantification Kit, Chengdu ForeGene Biotechnology Co., Ltd.) was performed using cDNA from the reverse transcription reaction as a template. The relative expression level 2^−ΔΔCt of the target gene was calculated from the Ct value of each sample with the blank control group as a control and β-Actin as an internal reference.
Based on the maximum level of VEGF-A mRNA expression promoted by a drug at a certain concentration, the activity of the drug was determined. The expression level of VEGF-A mRNA in macrophages was defined as 1 when no drug was added. Using a traditional Chinese medicine injection Salvianolate that is used in the treatment of Cardio-cerebrovascular disease and promotes a maximum level of VEGF-A mRNA expression of 6 in macrophages (the results are shown in Table 5) as a judgment standard, the compound promoting a maximum level of VEGF-A mRNA expression of 4 or more in macrophage was a target compound. That is, when the maximum level of VEGF-A mRNA expression in macrophages promoted by the test compound is over 4-fold higher than the expression level of VEGF-A mRNA in macrophages without the addition of the test compound, the test compound was a preliminary target compound promoting angiogenesis.

Structure (SMILES)	fold induction at 1 µM	fold induction at 100 µM	fold induction at 500 µM	fold induction at 1000 µM	fold induction at 2000 µM	fold induction at 3000 µM
COc1ccccc1CCCCO[C@@H]1O[C@H](CO)[C@@H](O)[C@H](O)[C@H]1O [TG-001]	3.68	1.65	7.89	1.91	2.36	0.68
COc1cc(CCCCO[C@@H]2O[C@H](CO)[C@@H](O)[C@H](O)[C@H]2O)cc(OC)c1 [TG-002]	1.71	1.68	1.88	1.21	0.44	0.73
COc1cccc(CCCCO[C@@H]2O[C@H](CO)[C@@H](O)[C@H](O)[C@H]2O)c1 [TG-004]	0.9	0.4	0.73	1.11	4.29	2.66
COc1ccc(CCCCCO[C@@H]2O[C@H](CO)[C@@H](O)[C@H](O)[C@H]2O)cc1 [TG-005]	0.91	0.36	2.64	1.15	1.3	2.39
COc1ccc(CCCCCCO[C@@H]2O[C@H](CO)[C@@H](O)[C@H](O)[C@H]2O)cc1 [TG-006]	3.86	1.92	2.48	0.7	0.48	0.44
COc1cc(CCCCO[C@@H]2O[C@H](CO)[C@@H](O)[C@H](O)[C@H]2O)cc(OC)c1OC [TG-007]	4.38	1.67	1.42	2.87	0.65	0.99
OC[C@H]1O[C@@H](OCCCCc2ccc3c(c2)OCO3)[C@H](O)[C@@H](O)[C@@H]1O [TG-008]	3.34	1.38	1.42	0.61	6.28	5.46
OC[C@H]1O[C@@H](OCCCCC2CCCCC2)[C@H](O)[C@@H](O)[C@@H]1O [TG-009]	1.29	1.28	0.95	1	1.61	5.94
OC[C@H]1O[C@@H](OCCCCc2ccc(F)cc2)[C@H](O)[C@@H](O)[C@@H]1O [TG-010]	0.98	0.68	0.69	1.48	5.31	9.78
O=[N+]([O-])c1ccc(CCCCO[C@@H]2O[C@H](CO)[C@@H](O)[C@H](O)[C@H]2O)cc1 [TG-011]	1.75	1.18	1.3	0.46	1.24	0.55
OC[C@H]1O[C@@H](OCCCCc2ccc(Br)cc2)[C@H](O)[C@@H](O)[C@@H]1O [TG-012]	1.99	2.31	3.14	0.5	2.08	4.38
OC[C@H]1O[C@@H](OCCCCc2ccc(OCc3ccccc3)cc2)[C@H](O)[C@@H](O)[C@@H]1O [TG-013]	1.44	2.51	3.98	3.3	3.23	2.44
C=CCOc1ccc(CCCCO[C@@H]2O[C@H](CO)[C@@H](O)[C@H](O)[C@H]2O)cc1 [TG-015]	1.58	1.26	2.18	4.3	1.65	1.53
OC[C@H]1O[C@@H](OCCCCc2ccc(OCC3CCCCC3)cc2)[C@H](O)[C@@H](O)[C@@H]1O [TG-016]	3.09	1	1.34	1.54	2.77	17.1
OC[C@H]1O[C@@H](OCCCCc2ccc(OCc3cccnc3)cc2)[C@H](O)[C@@H](O)[C@@H]1O [TG-017]	1.54	1.29	2.55	5.9	2.29	2.48
OC[C@H]1O[C@@H](OCCCCc2ccc(OCC3CCCC3)cc2)[C@H](O)[C@@H](O)[C@@H]1O [TG-018]	0.88	3.62	4.15	5.26	7.24	6.53
OC[C@H]1O[C@@H](OCCCCc2ccc(OCc3ccncc3)cc2)[C@H](O)[C@@H](O)[C@@H]1O [TG-019]	0.74	0.72	1.03	5.2	7.03	2.92
OC[C@H]1O[C@@H](OCCCCc2ccc(OCC3CCOCC3)cc2)[C@H](O)[C@@H](O)[C@@H]1O [TG-020]	0.88	0.93	2.8	3.9	2.24	2.56
OC[C@H]1O[C@@H](OCCCCc2ccc(OCC3CCC3)cc2)[C@H](O)[C@@H](O)[C@@H]1O [TG-021]	0.87	2.69	3.81	4.24	9.2	7.96
OC[C@H]1O[C@@H](OCCCCc2ccc(OCc3ccccn3)cc2)[C@H](O)[C@@H](O)[C@@H]1O [TG-022]	2.31	0.91	1.43	1.68	1.89	0.66
OC[C@H]1O[C@@H](OCCCCc2ccc(O)cc2)[C@H](O)[C@@H](O)[C@@H]1O [TG-023]	0.16	0.55	0.71	0.5	0.19	0.71
CCOc1ccc(CCCCO[C@@H]2O[C@H](CO)[C@@H](O)[C@H](O)[C@H]2O)cc1 [TG-024]	1.82	1.14	1.64	4.86	8.38	4.32
OC[C@H]1O[C@@H](OCCCCc2ccc(OCC3COC3)cc2)[C@H](O)[C@@H](O)[C@@H]1O [TG-025]	1.62	1.78	1.43	2.15	9.69	2.06
